Measured values: patent US8329735B2, “Tetrazole compounds which selectively modulate the CB2 receptor” (Boehringer Ingelheim International GmbH, priority 2010, dated 2012)
≈ marks a conversion by molar mass, not a printed value. Read-outs that look alike come from different tables or passages of the source.

Columns and labels:
human CB2R = biological target: T1, human CB2R (Homo sapiens, UniProt P34972); experiment: CB2R mediated modulation of cAMP synthesis; type: cell-based
T1 construct: host or cells: CHO cells
T1 sequence (P34972 whole entry): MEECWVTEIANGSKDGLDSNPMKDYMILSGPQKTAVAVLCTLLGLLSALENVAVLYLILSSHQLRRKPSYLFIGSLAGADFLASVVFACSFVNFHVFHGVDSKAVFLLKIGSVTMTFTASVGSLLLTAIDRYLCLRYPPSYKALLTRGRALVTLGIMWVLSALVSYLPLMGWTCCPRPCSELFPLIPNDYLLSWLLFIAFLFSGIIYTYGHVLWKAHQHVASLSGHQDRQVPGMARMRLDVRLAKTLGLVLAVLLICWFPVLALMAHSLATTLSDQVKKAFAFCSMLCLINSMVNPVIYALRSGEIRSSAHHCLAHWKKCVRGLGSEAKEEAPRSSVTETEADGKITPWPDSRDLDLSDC
Description: Compounds of the invention are evaluated for their CB2 agonist or inverse agonistic activity in accordance with the following experimental method.
(§1) CHO cells expressing human CB2R (Euroscreen) are plated at a density of 5000 cells per well in 384 well plates and incubated overnight at 37° C. After removing the media, the cells are treated with test compounds diluted in stimulation buffer containing 1 mM IBMX, 0.25% BSA and 10 uM Forskolin. The assay is incubated for 30 minutes at 37° C. Cells are lysed and the cAMP concentration is measured using DiscoverX—XS cAMP kit, following the manufacturer's protocol. In this setting, agonists will decrease forskolin induced production of cAMP while inverse agonists will further increase forskolin induced production of cAMP. EC50 of agonists are calculated as follows. The maximal amount of cAMP produced by forskolin compared to the level of cAMP inhibited by 1 uM CP55940 is defined as 100%. The EC50 value of each test compound is determined as the concentration at which 50% of the forskolin-stimulated cAMP synthesis is inhibited. Data is analyzed using a four-parameter logistic model. (Model 205 of XLfit 4.0).

human CB1R = biological target: T2, human CB1R (Homo sapiens, UniProt P21554); experiment: CB1R mediated modulation of cAMP synthesis; type: cell-based; conditions: CHO cells expressing human CB1R, forskolin-stimulated cAMP
T2 construct: host or cells: CHO cells
T2 sequence (P21554 whole entry): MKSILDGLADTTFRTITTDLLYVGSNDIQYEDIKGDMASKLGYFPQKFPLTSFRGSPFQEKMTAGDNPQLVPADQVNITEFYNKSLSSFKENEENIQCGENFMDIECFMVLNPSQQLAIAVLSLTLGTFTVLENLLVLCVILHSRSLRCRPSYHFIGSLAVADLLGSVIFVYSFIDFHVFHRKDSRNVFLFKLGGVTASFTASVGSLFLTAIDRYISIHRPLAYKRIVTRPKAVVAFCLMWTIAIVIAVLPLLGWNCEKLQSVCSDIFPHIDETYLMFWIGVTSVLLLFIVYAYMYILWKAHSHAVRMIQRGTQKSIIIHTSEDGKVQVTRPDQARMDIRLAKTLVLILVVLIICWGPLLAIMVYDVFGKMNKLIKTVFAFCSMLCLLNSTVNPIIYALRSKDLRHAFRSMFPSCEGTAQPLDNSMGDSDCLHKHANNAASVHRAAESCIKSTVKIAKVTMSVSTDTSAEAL
Description: Compounds of the invention are evaluated for their CB1 agonist or inverse agonistic activity in accordance with the following experimental method.
as §1, with “CB1R” for “CB2R”

[1] = Human microsomal stability assay; type: in vitro ADME; conditions: human liver microsomes 1 mg protein/ml, 1 uM compound, pH 7.4
Description: The double time point high throughput screen for human liver microsomal metabolic stability is used to measure the in vitro metabolism of test compounds by human liver microsomal enzymes. The data collected are analyzed to calculate a half-life (t½, min) and clearance (expressed as percent hepatic blood flow, % QH) for test compounds. The assay is performed in 50 mM potassium phosphate buffer, pH 7.4 and 2.5 mM NADPH. Test samples are dissolved in DMSO and acetonitrile for a final assay concentration of 1 uM. Human liver microsomes are diluted in assay buffer to a final assay concentration of 1 mg protein/ml. Compound solution and microsome suspension are added to assay buffer for a final incubation volume of 350 ul. The preparation is incubated for 5 min in a 37° C. water bath. The reaction is started by the addition of NADPH. Volumes of 80 ul are removed from the incubation mix at 0, 5, and 30 min after the start of the reaction and added to 160 ul acetonitrile. The supernatant is transferred to 0.25 mm glass fiber filter plates and centrifuged for 5 min at 3000 rpm. Injection volumes of 10 ul are typically added to HPLC columns with formic acid in water or acetonitrile at a flow rate of 0.3 ml/min. Percent loss of parent compound is calculated from the area under each time point to determine the half-life and clearance. Preferred compounds of the invention will have a human liver microsomal stability of <25% QH.

[2] = Aqueous (equilibrium) solubility assay; type: physicochemical; conditions: aqueous buffer, thermodynamic from solid, 48 hrs equilibrium
Description: The equilibrium solubility of compounds is determined in pH 2, 4.5, 6.8 buffers. Prior to solubility measurement, the crystalline/amorphous characteristics of the sample are determined by observing the powder form under polarized light microscope. Solubility is only measured when compound is crystalline.
Approximately 2 mg of compound are weighed out into a vial and 1-2 ml of buffer are added into the vial (pHs 2 & 4.5, use 1 ml and for pHs 6.8 and 7.4 use 2 ml of buffer). The vial is rotated for 48 hrs protected from light. After 48 hrs, the sample is transferred into an eppendorf tube and centrifuged for 10 minutes at 14,000 RPM, if the supernatant is not clear, it is filtered (PVDF filter). The clear supernatant is diluted if necessary, before analyzing via HPLC. The final pH of the supernatant or the filtrate is measured and reported. The external calibration curve is used to determine the solubility value. The percentage of extraneous peaks relative to the parent peak is monitored in the standard solution as well as the solubility sample. Preferred compounds of the invention will have a solubility of >100 μg/ml.

[3] = tested on: Salmonella bacterial strains TA98 and TA100; experiment: Ames mutagenicity assay: bacteria reverse mutation screening assay; type: cell-based; conditions: TA98 and TA100, presence or absence of S9
Description: The Ames ^(1) Salmonella bacterial strains used in the abbreviated screening assay ^(2) are TA98 and TA100. Actively growing (log phase) bacteria are incubated with test compound and trace amounts of histidine in the presence or absence of S9 for 48 hours on minimal agar plates. Test compound is dissolved in DMSO to a final concentration of 100 mg/ml. The stock is serially diluted to yield concentrations of 100, 50, 25 12.5 and 6.3 mg/ml. Fifty microliters of dosing solution is combined with top agar and buffer (or S9 mix) and poured on duplicate plates to yield effective doses of 5000, 2500, 1250, 625 and 313 μg/plate. Positive and negative controls plates are included. Formation of colonies after 48 hr incubation at 37° C. is an indication of genetic reversion, either arising spontaneously or caused by the test compound. The average number of spontaneous colonies growing on control plates is compared to the number of colonies on test plates. A fold increase of 2-3× over background is generally considered a positive response for mutagenicity. • 1. Maron, D. M. and Ames, B. N. (1983). “Revised Methods for the Salmonella Mutagenicity Test”. Mutat. Res. 113, 173-215. • 2. D. A. Burke, D. J. Wedd, and B. Burlinson (1996). “Use of the Miniscreen assay to screen novel compounds for bacterial mutagenicity in the pharmaceutical industry”. Mutagenesis 11: 201-205.

[4] = pH 4.5 buffer, read-out: solubility at pH 4.5
[5] = pH 6.8 buffer, read-out: solubility at pH 6.8
[6] = Table XI, CHO cells expressing human CB2R, forskolin-stimulated cAMP, read-out: CB2 CAMP EC50
[7] = Table XI, read-out: CB1 CAMP EC50

Structure (SMILES)	EC50 (human CB2R) [nM]	EC50 (human CB1R; CB1 EC50, Table II) [nM]	HLM clearance (percent hepatic blood flow) [1] [QH %]	solubility at 48 h [2, 4] [µg/mL]	EC50 (human CB1R; CB1 CAMP EC50, Table XI) [nM]	Ames [3]	solubility at 48 h [2, 5] [µg/mL]	EC50 (human CB2R; [6]) [nM]	EC50 (human CB1R; [7]) [nM]	EC50 (human CB2R; Table II, CHO cells expressing human CB2R, forskolin-stimulated cAMP, read-out: CB2 EC50) [nM]	EC50 (human CB1R; Table II, read-out: CB1 EC50) [nM]
CO[C@H]1CC[C@@H](S(=O)(=O)C(C)(C)C(=O)Nc2nnn(C(C)(C)C)n2)CC1	56	> 50000	–	–	–	–	–	–	–	–	–
CC(C)(C)n1nnc(NC(=O)C(C)(C)S(=O)(=O)[C@H]2CC[C@@H](O)CC2)n1	8.7	> 50000	–	–	–	–	–	–	–	–	–
CC(C)(C)n1nnc(NC(=O)C(C)(C)S(=O)(=O)CC[C@@H]2CCOC2)n1	12	~50000	–	–	–	–	–	–	–	–	–
CCC(C)S(=O)(=O)C(C)(C)C(=O)Nc1cc(C(C)(C)C)on1 (stereo not shown) [Example 42 WO08039645]	19	–	68	20 (≈ 60.5 µM)	> 20000	negative	–	–	–	–	–
CCC(C)S(=O)(=O)C(C)(C)C(=O)Nc1cc(C(C)(C)C)nn1C (stereo not shown) [Example 43 WO08039645]	–	–	61	1260 (≈ 3680 µM)	–	positive	1160 (≈ 3370 µM)	642	> 20000	–	–
CCC(C)S(=O)(=O)C(C)(C)C(=O)Nc1nc(C(C)(C)C)cs1 (stereo not shown) [Example 44 WO08039645]	14	–	67	13 (≈ 37.5 µM)	10700	negative	–	–	–	–	–
CC(C)(C)c1cc(NC(=O)C(C)(C)S(=O)(=O)CC2CCOCC2)no1 [Example 56 WO08039645]	4.5	–	47	47 (≈ 126 µM)	> 20000	negative	44 (≈ 118 µM)	–	–	–	–
CC(C)(C)c1csc(NC(=O)C(C)(C)S(=O)(=O)CC2CCOCC2)n1 [Example 57 WO08039645]	23	–	87	383 (≈ 986 µM)	2400	negative	406 (≈ 1040 µM)	–	–	–	–
Cn1nc(C(C)(C)C)cc1NC(=O)C(C)(C)S(=O)(=O)CC1CCOCC1 [Example 59 WO08039645]	–	–	<30.10	396 (≈ 1030 µM)	–	positive	452 (≈ 1170 µM)	140	> 20000	–	–
CC(C)(C)c1cc(NC(=O)C(C)(C)S(=O)(=O)C2CCOCC2)no1 [Example 66 WO08039645]	0.72	–	57	56 (≈ 156 µM)	> 50000	negative	53 (≈ 148 µM)	–	–	–	–
CC(C)(C)c1csc(NC(=O)C(C)(C)S(=O)(=O)C2CCOCC2)n1 [Example 67 WO08039645]	12	–	79	15 (≈ 40.1 µM)	11400	negative	16 (≈ 42.7 µM)	–	–	–	–
Cn1nc(C(C)(C)C)cc1NC(=O)C(C)(C)S(=O)(=O)C1CCOCC1 [Example 69 WO08039645]	–	–	<30.10	1040 (≈ 2810 µM)	–	positive	1230 (≈ 3320 µM)	216	> 20000	–	–
CC(C)(C)c1cc(NC(=O)C(C)(C)S(=O)(=O)c2ccc(F)cc2)no1 [Example 130 WO08014199]	2.4	–	68	5.2 (≈ 14.1 µM)	2240	negative	4.7 (≈ 12.8 µM)	–	–	–	–
CC(C)(C)c1cc(NC(=O)C(C)(C)S(=O)(=O)c2ccc(F)cc2)on1 [Example 248 WO08014199]	0.98	–	32	1.68 (≈ 4.56 µM)	3290	negative	1.25 (≈ 3.39 µM)	–	–	–	–
Cn1nc(C(C)(C)C)cc1NC(=O)C(C)(C)S(=O)(=O)c1ccc(F)cc1 [Example 251 WO08014199]	2.57	–	30	137 (≈ 359 µM)	10900	positive	148 (≈ 388 µM)	–	–	–	–
CC(C)(C)c1csc(NC(=O)C(C)(C)S(=O)(=O)c2ccc(F)cc2)n1 [Example 252 WO08014199]	0.401	–	85	1.74 (≈ 4.53 µM)	934	negative	1.62 (≈ 4.21 µM)	–	–	–	–
CC(C)(C)n1nnc(NC(=O)C(C)(C)S(=O)(=O)C2CCOCC2)n1 [Table II compound 1]	21	> 20000	<30.10	> 2120	> 50000	negative	> 1750	–	–	–	–
CC(C)(C)n1nnc(NC(=O)C(C)(C)S(=O)(=O)CC2CCOCC2)n1 [Table II compound 2]	50	> 50000	<30.10	391 (≈ 1050 µM)	> 50000	negative	353 (≈ 945 µM)	–	–	–	–
CC[C@H](C)S(=O)(=O)C(C)(C)C(=O)Nc1nnn(C(C)(C)C)n1 [Table II compound 5]	–	–	<30.10	1210 (≈ 3640 µM)	–	negative	1150 (≈ 3470 µM)	–	> 50000	101	> 50000
